Measurements reported in paper PMC6757277, “Structural Basis of Glycerophosphodiester Recognition by the Mycobacterium tuberculosis Substrate-Binding Protein UgpB” (ACS Chemical Biology, 2019).

Biological target: Mtb UgpB (Mycobacterium tuberculosis, UniProt P71619)
Experiment: biochemical

Sequence of Mtb UgpB (P71619 entry or part of it): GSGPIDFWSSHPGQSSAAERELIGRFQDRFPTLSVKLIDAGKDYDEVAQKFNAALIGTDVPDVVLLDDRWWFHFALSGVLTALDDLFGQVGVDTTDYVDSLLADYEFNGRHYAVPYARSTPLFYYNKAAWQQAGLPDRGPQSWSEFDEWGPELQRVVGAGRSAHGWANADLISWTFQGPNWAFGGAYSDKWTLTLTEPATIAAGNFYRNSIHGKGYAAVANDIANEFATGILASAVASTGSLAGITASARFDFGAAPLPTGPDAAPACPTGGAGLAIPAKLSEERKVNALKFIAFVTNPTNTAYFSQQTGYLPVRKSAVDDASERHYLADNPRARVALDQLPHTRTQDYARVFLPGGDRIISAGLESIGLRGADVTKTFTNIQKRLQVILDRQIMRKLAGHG

Row | SMILES | Kd
1 | O=P(O)(O)O[C@H]1[C@H](O)[C@@H](O)[C@H](OP(=O)(O)OC[C@H](O)CO)[C@H](O)[C@@H]1O [GPI4P, glycerophosphoinositol-4-phosphate] | 290 ± 54.1 µM
2 | O=P(O)(OC[C@H](O)CO)O[C@@H]1[C@H](O)[C@H](O)[C@@H](O)[C@H](O)[C@H]1O [GPI, glycerophosphoinositol] | 1050 ± 313 µM
